These results are taken from US20100022584A1, “Modulation of Glutamine Synthetase Activity” (priority 2006, published 2010).

Assay [1] has as its target T1, glutamine synthetase mutant S52A S53A Y397V (Escherichia coli, UniProt P0A9C5, S53A/S54A/Y398V).
T1 construct: made in house; host or cells: E. coli YMC11 (glutamine synthetase auxotroph), pBluescript II SK+
T1 sequence (P0A9C5 2-469 S53A/S54A/Y398V limits assumed): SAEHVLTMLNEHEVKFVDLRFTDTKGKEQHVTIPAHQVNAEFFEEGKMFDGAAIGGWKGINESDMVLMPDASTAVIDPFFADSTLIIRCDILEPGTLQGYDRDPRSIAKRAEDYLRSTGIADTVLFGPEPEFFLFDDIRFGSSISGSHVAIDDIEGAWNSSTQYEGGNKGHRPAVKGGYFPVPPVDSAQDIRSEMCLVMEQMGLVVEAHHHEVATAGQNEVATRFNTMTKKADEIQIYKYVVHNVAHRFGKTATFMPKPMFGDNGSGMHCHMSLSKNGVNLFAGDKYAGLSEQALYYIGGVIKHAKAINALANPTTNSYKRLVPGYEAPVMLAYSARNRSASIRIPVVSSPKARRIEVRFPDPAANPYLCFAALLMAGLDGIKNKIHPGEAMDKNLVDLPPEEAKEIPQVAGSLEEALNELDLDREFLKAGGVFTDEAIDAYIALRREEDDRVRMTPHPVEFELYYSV
Nature of the assay: HPLC forward-reaction glutamine synthetase assay with serine protease inhibitors. As to conditions: 1 mM inhibitor; for inhibition of the enzyme (in words): HPLC assays; for % Reduction in ADP-based Specific Activity / % Reduction in Glutamine-based Specific Activity / % Conversion: Mn assay; for % Reduction in ADP-based Specific Activity / % Reduction in Glutamine-based Specific Activity: 60 min pre-incubation, vs no-inhibitor control; for % Reduction in Glutamine-based Specific Activity: positive = activity increased; for % Conversion: glutamine-based divided by ADP-based specific activity. The class given is biochemical, E. coli. The protocol:
(§1) This assay was set up to measure glutamine synthetase activity according to the forward reaction, and measures the amount of glutamine formed from […] of L-glutamate in the presence of MnCO3-ATP (the basis of one reaction) and MgATP (the basis of a second reaction). In addition, the amount of ADP formed is also measured in a separate assay, using the same reagents.
(§2) All enzyme preparations were adjusted to the same concentration of protein, and added to the assay mixture in a volume of 50 μl. The addition of the enzyme started the reaction, which was then allowed to proceed for 1 hour. The reaction was stopped by the addition of 6 μl of a 50% solution of trichloroacetic acid. Each assay was then aliquoted into 4 HPLC vials (150 μl per vial), two of which were assayed for glutamate and glutamine using a Phenomenex Luna 5 μC18 Column on an Agilent 100 HPLC instrument. The ATP/ADP assays were run on a Chromolith Performance RP-18c column also using an Agilent 100 HPLC instrument.
(§3) As it is believed that two putative catalytic triads, similar to those in the serine proteases, are involved in the reaction mechanism of glutamine synthetase, certain of the mutants were also assayed by HPLC in the presence of the serine protease inhibitors, AEBSF and PMSF, in order to assess the effect that these inhibitors had on the enzyme. The enzymes assessed were the adenylylated WT enzyme, the deadenylylated WT enzyme, and the mutant enzymes S52A, S52A Y397V, S53A, S53A Y397V, S52A S53A and S52A S53A Y397V. The enzymes were pre-incubated for 60 minutes in the presence of 1 mM PMSF or 1 mM AEBSF. A control reaction was set up for each enzyme, which contained no inhibitor. Each enzyme was then added to assays set up as described above. The assay was allowed to proceed for 60 minutes, then stopped by the addition of […] of 50% TCA, after which they were analysed by HPLC. All assays were run in triplicate.
(§4) In addition to the γ-glutamyl transferase assays, assays were also developed to measure the rate of conversion of ATP and glutamate to ADP and glutamine by HPLC. These were set up as single assays but analysed separately for glutamate and glutamine and ATP and ADP. The conversion rates for glutamate to glutamine, in both the presence of Mn^2+ and Mg^2+ by glutamine synthetase, is referred to as the […] specific activity and is presented in μmoles/min/mg protein. The conversion rates for ATP to ADP, in both the presence of Mn^2+ and Mg^2+ by glutamine synthetase, is referred to as the ADP-based specific activity and is presented in μmoles/min/mg protein. The percentage of conversion was also calculated by dividing the glutamine-based specific activity by the ADP-based specific activity, and this value is interpreted as the ability of the enzyme to complete both steps of the reaction, i.e., glutamate to glutamine and ATP to ADP, at an equivalent level of efficiency.

For assay [2], the target named is T2, deadenylylated WT enzyme, WT (DD) glutamine synthetase (Escherichia coli, UniProt P0A9C5).
T2 construct: made in house; host or cells: E. coli carrying pBSK-ECgln (pBluescript II SK+), continuous culture; YMC11 is the expression strain named for this plasmid
T2 sequence (P0A9C5 2-469 limits assumed): T1 sequence (P0A9C5 2-469 S53A/S54A/Y398V limits assumed) with A52S, A53S, V397Y
The description is as above. The class given is biochemical, E. coli. Particulars: 1 mM inhibitor; for % Reduction in ADP-based Specific Activity / % Reduction in Glutamine-based Specific Activity: 60 min pre-incubation, vs no-inhibitor control, positive = activity increased; for % Conversion: glutamine-based divided by ADP-based specific activity. The method, then: as §1, §2, §3, §4

Substitutions are numbered along the chain they refer to.

For `NCCc1ccc(S(=O)(=O)F)cc1` [AEBSF], in assay [1], the “inhibition of the enzyme (in words)” value is recorded as “appeared to cause inhibition”, the “% Reduction in ADP-based Specific Activity” value is −5.20%, the “% Reduction in Glutamine-based Specific Activity” value is listed as −1.65% and the “% Conversion” value was 75%. Also, in assay [2] (Mg assay), the “% Reduction in ADP-based Specific Activity” value is recorded as −14.98%, the “% Reduction in Glutamine-based Specific Activity” value is on record as −8.43% and the “% Conversion” value came to 82%. In assay [2] (Mn assay), the “% Reduction in ADP-based Specific Activity” value is on record as −4.73%, the “% Reduction in Glutamine-based Specific Activity” value is −2.23% and the “% Conversion” value turned out to be 94%.

Take `O=S(=O)(F)Cc1ccccc1` [PMSF]: in assay [1], the “inhibition of the enzyme (in words)” value was “did not significantly inhibit”, the “% Reduction in ADP-based Specific Activity” value is −4.83%, the “% Reduction in Glutamine-based Specific Activity” value was −18.20% and the “% Conversion” value turned out to be 62%. For the same compound, in assay [2] (Mg assay), the “% Reduction in ADP-based Specific Activity” value was −6.07%, the “% Reduction in Glutamine-based Specific Activity” value is −16.55% and the “% Conversion” value stood at 67%. In addition, in assay [2] (Mn assay), the “% Reduction in ADP-based Specific Activity” value is −3.53%, the “% Reduction in Glutamine-based Specific Activity” value is −17.69% and the “% Conversion” value was 78%.
